Source: patent EP0603240B1, “SAFENING HERBICIDAL PYRAZOLYLSULFONYLUREAS” (priority 1991, dated 1993)
Read-outs that look alike come from different tables or passages of the source.

How the values were obtained:
Assay type in all cases: in vivo
corn = test: Example 19, Procedure II: Herbicide No. 1 + ERADICANE EXTRA with added antidotes
Method: (§1) Containers were filled and compacted with a fumigated silt loam top soil to a depth of about 1.3 cm from the top of the container. A first container was designated as an untreated control, a second container was designated as a herbicide control, and a third container was designated as a herbicide + antidote test container. Each of the containers was seeded with a crop species. A measured amount of herbicide dispersed or dissolved in acetone was applied to a measured quantity of soil. To this same quantity of soil treated with herbicide, there was added a measured amount of antidote dispersed or dissolved in acetone. The quantity of soil treated with the herbicide and antidote was thoroughly mixed to incorporate the herbicide and antidote in the soil uniformly. The seed bed in the third container of soil was covered with the soil treated with the herbicide and antidote and the container was leveled. For each test series, the seed beds of the first and second containers were likewise covered by soil layers. the cover layer of the first container was not treated with herbicide or antidote.
(§2) The containers were then placed on a bench in a greenhouse and sub-irrigated as required for the duration of the test. […] Plant response is measured in terms of percent injury. Antidote efficacy is indicated as the difference in plant injury by the herbicide(s) without the antidote and with the antidote.
(§3) This procedure is the same as Procedure I, but modified in the manner that after incorporation of the chemicals (herbicide and antidote) the containers with the covered seedbed were treated with an initial overhead irrigation equivalent to 0.6 cm rainfall, then subsequently sub-irrigated as required on greenhouse benches.
In the test reported in this example, the herbicidal composition was similar to that used in Example 16 in that Herbicide No. 1 was combined with EPTC (Herbicide No. 4) as a co-herbicide and the antidotes included Nos. 1, 2, 7, 13 and 15. However, in this test the EPTC was introduced as a formulation of ERADICANE (EPTC + the antidote R-25788, i.e., Antidote No. 1) at an application rate of 8.96 kg/ha. Thus, in this test two antidotes were present, viz. R-25788 and one of the auxilliary antidotes, No. 2, 13 and 15.
The test reported in this example was performed in the same manner and with the same antidotes used in Example 18, the only difference being the substitution of the commercial herbicidal product ERADICANE® EXTRA for ERADICANE®. ERADICANE EXTRA is a formulation containing both an antidote, i.e., R-29148 (Antidote No. 5 herein), and an extender, dietholate.

[1] = tested on: velvetleaf (Abutilon theophrasti); test: Example 22: retest of Example 21 at reduced greenhouse temperatures; conditions: Table 22
Method: as §1, §2, §3
(§4) In the series of greenhouse tests described below, for routine screening purposes the herbicide/antidote compositions were tested in crop/weed combinations involving corn as the crop and either or both of the weeds barnyardgrass (Echinochloa crusgalli), a monocotyledonous weed, and velvetleaf (Abutilon theophrasti), a dicotyledonous weed. In the tables below, these weeds are indicated by the symbols "BYG" and "VL", respectively.
(§5) In this example, tests were conducted as in the preceding Examples 18-20, except here the co-herbicidal component was SUTAN® PLUS, a commercial product comprising as the active herbicidal ingredient the compound butylate (Herbicide No. 10) and an antidote […] (Antidote No. 1). Again, the antidotal compounds herein were Nos. 1, 2, 7, 13 and 15. Procedure II was used.
(§6) The experiments in this example were designed as a retest of those described in Example 21 in view of the uncharacteristically poor corn safety and weed control, believed to have resulted from unseasonably high temperatures in the greenhouse. Accordingly, temperatures were reduced for these tests.

[2] = tested on: barnyardgrass (Echinochloa crusgalli); test: as above; conditions: Table 22
Method: as §1, §2, §3, §4, §5, §6

[3] = tested on: Giant foxtail (Setaria fabergi); test: Example 24, Procedure II: Herbicide No. 1 + co-herbicides Nos. 4, 6, 7, 12 with Antidote Nos. 15 and 17-21; conditions: Setaria
Method: as §1, §2, §3
(§7) In other greenhouse tests, using Procedure II described above, the safening efficacy of Antidote Nos. 15 and 17-21 was evaluated against Herbicide No. 1 in corn in the presence of Giant foxtail (Setaria fabergi) and Velvetleaf (Abutilon theophrasti) as representative annual monocotyledonous and dicotyledonous weeds, respectively.
(§8) Test results are shown in Tables 23A and 23B wherein the indicated plant inhibition represents the average of duplicate replications, with observations being made thirteen (13) days after application of the chemicals. Giant foxtail and Velvetleaf are represented by the symbols "GFT" and "VL", respectively. The data in Table 23A show the test results using the antidotes at 2.24 kg/ha, whereas in Table 23B, the antidotal rate was reduced to 0.56 kg/ha.
(§9) The tests described in Example 23 were duplicated, but in this example a variety of co-herbicides were included to ascertain the efficacy of the antidotes against combinations of Herbicide No. 1 and Herbicides Nos. 4, 6, 7 and 12 as co-herbicides. Test results are shown in Table 24, wherein the antidote application rate was 2.24 kg/ha.

[4] = tested on: velvetleaf (Abutilon theophrasti); test: as above; conditions: Abutilon theophrasti
Method: as §1, §2, §3, §7, §8, §9

[5] = Herbicide No.1 0.56 kg/ha + ERADICANE EXTRA 8.96 kg/ha, antidote 2.24 kg/ha
[6] = Herbicide No.1 0.56 kg/ha + ERADICANE EXTRA 8.96 kg/ha, antidote 8.96 kg/ha
[7] = Herbicide No.1 1.12 kg/ha + ERADICANE EXTRA 8.96 kg/ha, antidote 2.24 kg/ha
[8] = Herbicide No.1 1.12 kg/ha + ERADICANE EXTRA 8.96 kg/ha, antidote 8.96 kg/ha
[9] = Herbicide No.1 0.56 Kg/ha + SUTAN + 8.96 Kg/ha + antidote 2.24 Kg/ha
[10] = Herbicide No.1 0.56 Kg/ha + SUTAN + 8.96 Kg/ha + antidote 8.96 Kg/ha
[11] = Herbicide No.1 1.12 Kg/ha + SUTAN + 8.96 Kg/ha + antidote 2.24 Kg/ha
[12] = Herbicide No.1 1.12 Kg/ha + SUTAN + 8.96 Kg/ha + antidote 8.96 Kg/ha
[13] = Herbicide No.1 0.56 Kg/ha + SUTAN + 8.96 Kg/ha, no added antidote
[14] = Herbicide No.1 0.56 Kg/ha alone
[15] = Herbicide No.1 1.12 Kg/ha + SUTAN + 8.96 Kg/ha, no added antidote
[16] = Herbicide No.1 1.12 Kg/ha alone

## O=C1OC(=O)c2cccc3cccc1c23 [compound 2]
corn; [5]
  % Injury Corn: 20%
corn; [6]
  % Injury Corn: 25%
corn; [7]
  % Injury Corn: 25%
corn; [8]
  % Injury Corn: 20%
[1]; [9]
  % Injury VL: 80%
[1]; [10]
  % Injury VL: 90%
[1]; [11]
  % Injury VL: 93%
[1]; [12]
  % Injury VL: 90%
[2]; [9]
  % Injury BYG: 80%
[2]; [10]
  % Injury BYG: 90%
[2]; [11]
  % Injury BYG: 85%
[2]; [12]
  % Injury BYG: 90%

## O=C(C(Cl)Cl)N1CCOC12CCCCC2 [compound 7]
corn; [5]
  % Injury Corn: 15%
corn; [6]
  % Injury Corn: 20%
corn; [7]
  % Injury Corn: 25%
corn; [8]
  % Injury Corn: 25%
[1]; [9]
  % Injury VL: 80%
[1]; [10]
  % Injury VL: 75%
[1]; [11]
  % Injury VL: 97%
[1]; [12]
  % Injury VL: 70%
[2]; [9]
  % Injury BYG: 90%
[2]; [10]
  % Injury BYG: 90%
[2]; [11]
  % Injury BYG: 95%
[2]; [12]
  % Injury BYG: 80%

## COC(=O)c1c(Cl)nn(C)c1S(=O)(=O)NC(=O)Nc1nc(OC)cc(OC)n1 [Herbicide No. 1]
[3]; read-out: % Inhibition GFT, Herb. No. 1 0.07 Kg/ha + Co-Herb. No. 4 1.12 Kg/ha, no antidote
  inhibition at 1120 g/ha: 70%
[3]; read-out: % Inhibition GFT, Herb. No. 1 0.07 Kg/ha + Co-Herb. No. 6 0.14 Kg/ha, no antidote
  inhibition at 140 g/ha: 100%
[3]; read-out: % Inhibition GFT, Herb. No. 1 0.07 Kg/ha + Co-Herb. No. 7 0.28 Kg/ha, no antidote
  inhibition at 280 g/ha: 100%
[3]; read-out: % Inhibition GFT, Herb. No. 1 0.07 Kg/ha + Co-Herb. No. 12 0.28 Kg/ha, no antidote
  inhibition at 280 g/ha: 99%
[3]; read-out: % Inhibition GFT, Herb. No. 1 0.14 Kg/ha + Co-Herb. No. 4 1.12 Kg/ha, no antidote
  inhibition at 1120 g/ha: 80%
[3]; read-out: % Inhibition GFT, Herb. No. 1 0.14 Kg/ha + Co-Herb. No. 6 0.14 Kg/ha, no antidote
  inhibition at 140 g/ha: 100%
[3]; read-out: % Inhibition GFT, Herb. No. 1 0.14 Kg/ha + Co-Herb. No. 7 0.28 Kg/ha, no antidote
  inhibition at 280 g/ha: 100%
[3]; read-out: % Inhibition GFT, Herb. No. 1 0.14 Kg/ha + Co-Herb. No. 12 0.28 Kg/ha, no antidote
  inhibition at 280 g/ha: 99%
[3]; read-out: % Inhibition GFT, Herb. No. 1 0.28 Kg/ha + Co-Herb. No. 4 1.12 Kg/ha, no antidote
  inhibition at 1120 g/ha: 85%
[3]; read-out: % Inhibition GFT, Herb. No. 1 0.28 Kg/ha + Co-Herb. No. 6 0.14 Kg/ha, no antidote
  inhibition at 140 g/ha: 100%
[3]; read-out: % Inhibition GFT, Herb. No. 1 0.28 Kg/ha + Co-Herb. No. 7 0.28 Kg/ha, no antidote
  inhibition at 280 g/ha: 100%
[3]; read-out: % Inhibition GFT, Herb. No. 1 0.28 Kg/ha + Co-Herb. No. 12 0.28 Kg/ha, no antidote
  inhibition at 280 g/ha: 99%
[3]; read-out: % Inhibition GFT, Herb. No. 1 0.56 Kg/ha + Co-Herb. No. 4 1.12 Kg/ha, no antidote
  inhibition at 1120 g/ha: 75%
[3]; read-out: % Inhibition GFT, Herb. No. 1 0.56 Kg/ha + Co-Herb. No. 6 0.14 Kg/ha, no antidote
  inhibition at 140 g/ha: 100%
[3]; read-out: % Inhibition GFT, Herb. No. 1 0.56 Kg/ha + Co-Herb. No. 7 0.28 Kg/ha, no antidote
  inhibition at 280 g/ha: 99%
[3]; read-out: % Inhibition GFT, Herb. No. 1 0.56 Kg/ha + Co-Herb. No. 12 0.28 Kg/ha, no antidote
  inhibition at 280 g/ha: 99%
[4]; read-out: % Inhibition VL, Herb. No. 1 0.07 Kg/ha + Co-Herb. No. 4 1.12 Kg/ha, no antidote
  inhibition at 1120 g/ha: 90%
[4]; read-out: % Inhibition VL, Herb. No. 1 0.07 Kg/ha + Co-Herb. No. 6 0.14 Kg/ha, no antidote
  inhibition at 140 g/ha: 85%
[4]; read-out: % Inhibition VL, Herb. No. 1 0.07 Kg/ha + Co-Herb. No. 7 0.28 Kg/ha, no antidote
  inhibition at 280 g/ha: 90%
[4]; read-out: % Inhibition VL, Herb. No. 1 0.07 Kg/ha + Co-Herb. No. 12 0.28 Kg/ha, no antidote
  inhibition at 280 g/ha: 85%
[4]; read-out: % Inhibition VL, Herb. No. 1 0.14 Kg/ha + Co-Herb. No. 4 1.12 Kg/ha, no antidote
  inhibition at 1120 g/ha: 90%
[4]; read-out: % Inhibition VL, Herb. No. 1 0.14 Kg/ha + Co-Herb. No. 6 0.14 Kg/ha, no antidote
  inhibition at 140 g/ha: 95%
[4]; read-out: % Inhibition VL, Herb. No. 1 0.14 Kg/ha + Co-Herb. No. 7 0.28 Kg/ha, no antidote
  inhibition at 280 g/ha: 90%
[4]; read-out: % Inhibition VL, Herb. No. 1 0.14 Kg/ha + Co-Herb. No. 12 0.28 Kg/ha, no antidote
  inhibition at 280 g/ha: 90%
[4]; read-out: % Inhibition VL, Herb. No. 1 0.28 Kg/ha + Co-Herb. No. 4 1.12 Kg/ha, no antidote
  inhibition at 1120 g/ha: 95%
[4]; read-out: % Inhibition VL, Herb. No. 1 0.28 Kg/ha + Co-Herb. No. 6 0.14 Kg/ha, no antidote
  inhibition at 140 g/ha: 95%
[4]; read-out: % Inhibition VL, Herb. No. 1 0.28 Kg/ha + Co-Herb. No. 7 0.28 Kg/ha, no antidote
  inhibition at 280 g/ha: 95%
[4]; read-out: % Inhibition VL, Herb. No. 1 0.28 Kg/ha + Co-Herb. No. 12 0.28 Kg/ha, no antidote
  inhibition at 280 g/ha: 95%
[4]; read-out: % Inhibition VL, Herb. No. 1 0.56 Kg/ha + Co-Herb. No. 4 1.12 Kg/ha, no antidote
  inhibition at 1120 g/ha: 90%
[4]; read-out: % Inhibition VL, Herb. No. 1 0.56 Kg/ha + Co-Herb. No. 6 0.14 Kg/ha, no antidote
  inhibition at 140 g/ha: 95%
[4]; read-out: % Inhibition VL, Herb. No. 1 0.56 Kg/ha + Co-Herb. No. 7 0.28 Kg/ha, no antidote
  inhibition at 280 g/ha: 95%
[4]; read-out: % Inhibition VL, Herb. No. 1 0.56 Kg/ha + Co-Herb. No. 12 0.28 Kg/ha, no antidote
  inhibition at 280 g/ha: 90%
[1]; [13]
  % Injury VL: 80%
[1]; [14]
  % Injury VL: 65%
[1]; [15]
  % Injury VL: 85%
[1]; [16]
  % Injury VL: 80%
[2]; [13]
  % Injury BYG: 93%
[2]; [14]
  % Injury BYG: 55%
[2]; [15]
  % Injury BYG: 93%
[2]; [16]
  % Injury BYG: 70%

## CC1(C(Cl)Cl)OCCO1 [compound 13]
corn; [5]
  % Injury Corn: 25%
corn; [6]
  % Injury Corn: 15%
corn; [7]
  % Injury Corn: 20%
corn; [8]
  % Injury Corn: 15%
[1]; [9]
  % Injury VL: 85%
[1]; [10]
  % Injury VL: 95%
[1]; [11]
  % Injury VL: 95%
[1]; [12]
  % Injury VL: 90%
[2]; [9]
  % Injury BYG: 90%
[2]; [10]
  % Injury BYG: 90%
[2]; [11]
  % Injury BYG: 95%
[2]; [12]
  % Injury BYG: 93%
